Experimental data as given in US8697747B2, “Enhancing coagulation or reducing fibrinolysis” (THe UAB Research Foundation, priority 2009, dated 2014).

Key:
[1] = tested on: factor VIII deficient plasma; test: Thrombelastography, factor VIII deficient plasma; format: biochemical, human; conditions: FVIII deficient plasma, 11 individuals, mean ± SD
Procedure: Plasma deficient (<1% normal activity) in factor VIII (FVIII; 11 individuals), factor IX (FIX; 5 individuals), or factor VII (FVII; 4 individuals) was obtained from anonymous donors (George King Bio-Medical, Overland Park, Kans.) and was anticoagulated with sodium citrate. The final volume for all subsequently described plasma sample mixtures was […]. Sample composition consisted of […] of plasma, […] of tissue factor (0.1% final concentration in 0.9% NaCl; Diagnostica Stago, Asnieres, France), 3.6 mL of dimethyl sulfoxide (DMSO) or DMSO with CORM-2 ([…]; Sigma-Aldrich, St. Louis, Mo.), and 20 mL of […] CaCl2. […] (Motterlini et al. 2005). While CORM-2 decays slowly in DMSO, DMSO was added to the dry compound just prior to placement into the plasma mixture.
Plasma sample mixtures were placed in a disposable cup in a computer-controlled THROMBELASTOGRAPH® hemostasis system (Model 5000; Haemoscope Corp., Niles, Ill.), with addition of CaCl2 as the last step to initiate clotting. Data were collected until clot strength stabilized (maximum amplitude).
Statistical analyses. […] A paired student's t-test was used to analyze the effects of CORM-2 exposure in FVIII deficient individuals. The results of the FIX and FVII deficient groups were presented but not statistically analyzed secondary to the small number of individuals in each cohort. […] Statistical analyses and graphical representation of the data were generated with commercially available software (SigmaPlot 11.0; Systat Software Inc., San Jose, Calif.; CorelDRAW 12.0; Corel Corp., Ottawa, Ontario, Canada). A P value of less than 0.05 was considered significant.

[2] = tested on: Factor XIII (FXIII) deficient plasma; test: Thrombelastographic coagulation kinetics, Celite-activated FXIII deficient plasma; format: biochemical, human
Procedure: Pooled normal plasma (George King Bio-Medical, Overland Park, Kans.) anticoagulated with sodium citrate was utilized for experimentation. […] Factor XIII (FXIII) deficient plasma anticoagulated with sodium citrate was also obtained from George King Bio-Medical (Overland Park, Kans.).
Plasma Sample Composition. The final volume for all subsequently described plasma sample mixtures was 359.4 μL. […] (Motterlini et al., Expert Opin Investig Drugs, 14:1305-1318 (2005), which is incorporated by reference herein in its entirety).
Clot Lifespan Model Analyses. Plasma sample mixtures were placed in a disposable cup in a computer-controlled THROMBELASTOGRAPH® hemostasis system (Model 5000, Haemoscope Corp., Niles, Ill.), with addition of CaCl2 as the last step to initiate clotting. Data were collected for 15 minutes, as normal plasma completes thrombus formation within this interval in this system (Dong et al., Eur J Pharmacol 590:99-104 (2008)).
Statistical Analyses. Data are presented as mean±SD. All conditions described were represented with n=8 experiments, as n=6-8 typically provides statistical power>0.8 in similar analyses (Nielsen et al., Acta Anaesthesiol Scand 49:222-231 (2005) and Nielsen et al., Blood Coagul Fibrinolysis 17:75-81 (2006)). Analyses of the effects of CORM-2 and iCORM-2 on thrombelastographic variables were conducted using one way analysis of variance with the Holm-Sidak test used for post hoc comparisons. Graphical representation of the data was generated with commercially available software (Origin 7.5, OriginLab Corp., Northampton, Mass.). A P value of ≦0.05 was considered significant.

[3] = 100 μM, Celite-activated FXIII deficient plasma, mean ± SD, n=8

[C-]#[O+].[C-]#[O+].[C-]#[O+].[C-]#[O+].[C-]#[O+].[C-]#[O+].[Cl][Ru][Cl].[Cl][Ru][Cl] [CORM-2, tricarbonyldichlororuthenium (II) dimer]
TMRTG (time to maximum rate of thrombus generation) ([1]; 100 mmol CORM-2): 4.0 ± 2.3 min | TTG (total thrombus generation) ([1]; 100 mmol CORM-2): 232±56 dynes/cm^2 | MRTG (maximum rate of thrombus generation) ([1]; CORM-2): 5.0±2.7 dynes/cm^2/sec | MRTG (maximum rate of thrombus generation) [2, 3]: 9.1 ± 1.2 dynes/cm^2/sec | TMRTG (time to maximum rate of thrombus generation) [2, 3]: 296 ± 13 s | TTG (total thrombus generation) [2, 3]: 163 ± 21 dynes/cm^2 | equivalent replacement of FXIII activity with regard to enhancement of coagulation kinetics ([2]; addition to FXIII-deficient plasma): 100%
